Assay results: the supplement of paper PMC10307832

Key:
Experiment in all cases: relative viability (nuclei count vs DMSO), 5 days (fraction); higher = more cells survive
[1] = compound: C1CCC(CC1)N(CCNCCC2=C3C(=C(C=C2)O)NC(=O)CO3)C(=O)CCNCCC4=CC(=C(C=C4)Cl)Cl [AZ505] + CCNC(=O)c1noc(-c2cc(C(C)C)c(O)cc2O)c1-c1ccc(CN2CCOCC2)cc1 [Luminespib] (partner 0.01 µM)
Procedure, shortened: (§1)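 Relative viability was taken as the ratio of nuclei in treated wells to nuclei in vehicle wells. Lung cancer cell lines in 1536-well plates received compounds by pin tool one day after seeding, either one drug alone or a fixed anchor-drug dose plus five library-drug doses (not always all listed) in √10 steps. Nuclei were counted on 4× images after 5 days of treatment, and values are medians of duplicate plates.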

[2] = compound: Cn1c(=O)n(-c2ccc(C(C)(C)C#N)cc2)c2c3cc(-c4cnc5ccccc5c4)ccc3ncc21 [Dactolisib] + NC(=O)Nc1cc(-c2cccc(F)c2)sc1C(=O)N[C@H]1CCCNC1 [AZD7762] (partner 0.2 µM)
Procedure, shortened: as §1

[3] = compound: C1CCC(CC1)N(CCNCCC2=C3C(=C(C=C2)O)NC(=O)CO3)C(=O)CCNCCC4=CC(=C(C=C4)Cl)Cl [AZ505] + O=C(c1cc(Cc2n[nH]c(=O)c3ccccc23)ccc1F)N1CCN(C(=O)C2CC2)CC1 [Olaparib] (partner 8 µM)
Procedure, shortened: as §1

[4] = compound: Cn1c(=O)n(-c2ccc(C(C)(C)C#N)cc2)c2c3cc(-c4cnc5ccccc5c4)ccc3ncc21 [Dactolisib] + CS(=O)(=O)N1CCN(Cc2cc3nc(-c4cccc5[nH]ncc45)nc(N4CCOCC4)c3s2)CC1 [Pictilisib] (partner 1 µM)
Procedure, shortened: as §1

Cell Line	relative viability ([1]; first compound 0.08 µM)	relative viability ([1]; first compound 0.253 µM)	relative viability ([1]; first compound 0.8 µM)	relative viability ([1]; first compound 2.53 µM)	relative viability ([1]; first compound 8 µM)	relative viability ([2]; first compound 0.002 µM)	relative viability ([2]; first compound 0.006325 µM)	relative viability ([2]; first compound 0.02 µM)	relative viability ([2]; first compound 0.06325 µM)	relative viability ([2]; first compound 0.2 µM)	relative viability ([3]; first compound 0.08 µM)	relative viability ([3]; first compound 0.253 µM)	relative viability ([3]; first compound 0.8 µM)	relative viability ([3]; first compound 2.53 µM)	relative viability ([3]; first compound 8 µM)	relative viability ([4]; first compound 0.002 µM)	relative viability ([4]; first compound 0.006325 µM)	relative viability ([4]; first compound 0.02 µM)	relative viability ([4]; first compound 0.06325 µM)	relative viability ([4]; first compound 0.2 µM)
NCI-H1975	0.198	0.197	0.197	0.162	0.2	0.659	0.695	0.63	0.488	0.388	0.747	0.883	0.75	0.775	0.904	0.26	0.27	0.232	0.2	0.175
CAL-12T	0.341	0.596	0.265	0.377	0.64	0.573	0.691	0.638	0.424	0.357	0.588	0.777	0.736	0.706	0.696	0.407	0.408	0.358	0.251	0.254
NCI-H1623	0.604	0.46	0.58	0.503	0.681															
HCC-44	0.969	1.03	1.03	1.09	1.18	1.03	1.03	0.951	1.07	1.14	0.928	1.01	1.02	1	1.05	0.672	0.536	0.709	0.536	0.368
EKVX	0.873	0.615	0.831	0.846	0.91	0.693	0.73	0.659	0.589	0.303		0.895	0.764	0.874	0.916	0.402	0.433	0.37	0.293	0.241
NCI-H1651	0.78	0.881	0.736	0.841	0.944	0.443	0.483	0.318	0.28	0.179	0.182	0.19	0.179	0.185	0.186	0.654	0.514	0.449	0.328	0.265
NCI-H1944	0.827	0.715	0.77	0.707	0.738	0.374	0.47	0.401	0.24	0.195	0.39	0.411	0.497	0.413	0.423	0.36	0.334	0.305	0.233	0.253
NCI-H1703							0.139	0.127	0.124	0.115	0.319	0.502	0.438	0.411	0.656			0.257	0.228	0.192
Calu-6											0.543	0.59	0.525	0.504	0.608	0.935	0.855	0.729	0.414	0.352
EBC-1											0.644	0.693	0.673	0.69	0.642	0.332	0.279	0.279	0.204	0.171
A-427	0.708	1.02	0.789	1.01	1.38	0.749	0.698	0.688	0.498	0.306	0.765	0.704	0.724	0.721	0.732	0.648	0.674	0.718	0.49	0.498
NCI-H2347	0.32				0.494	0.75	0.78	0.715	0.532	0.458	0.554	0.505	0.489	0.489	0.52	0.49	0.599	0.482	0.389	0.237
NCI-H1355	0.672	0.701	0.655	0.675	0.718	0.834	0.73	0.699	0.419	0.308	0.719	0.796	0.729	0.734	0.711	0.505	0.401	0.43	0.32	0.241
NCI-H358	0.22	0.306	0.402		0.584	0.474	0.545	0.559	0.445	0.188	0.569	0.761	0.584	0.604	0.59	0.345	0.302	0.337	0.196	0.215
PC-3 [JPC-3]	0.65	0.697	0.661	0.635	0.739	0.841	0.788	0.685	0.666	0.353	0.918		0.944	1.01	1.15	0.78	0.784	0.696	0.697	0.572
NCI-H2228	0.114	0.182	0.145	0.138	0.14						0.669	0.627	0.524	0.863	0.481	0.355	0.291	0.248	0.173	0.222
HOP-62	0.864	0.883	0.824	0.884	1	0.513	0.403	0.657	0.261	0.198		0.374	0.386	0.387	0.45	0.967	0.58	0.604	0.236	0.254
HARA	0.622	0.32	0.444	0.628	0.324	0.271	0.463	0.59	0.438	0.27	0.451		0.734	0.631	0.761	0.469	0.34	0.366	0.277	0.236
